In US7304093B2, “Ketone compounds and compositions for cholesterol management and related uses” (Esperion Therapeutics, Inc., priority 2000, dated 2007):
Where two headings read alike, the source gives them in different places.

Tests used:
primary rat hepatocytes = assay: Inhibition of lipid synthesis ([1-14C]-acetate incorporation) in primary cultures of rat hepatocytes; type: cell-based; details: Hepatocyte, 4 h incubation with [1-14C]-acetate
Protocol: Compounds were tested for inhibition of lipid synthesis in primary cultures of rat hepatocytes. Male Sprague-Dawley rats were anesthetized with intraperitoneal injection of sodium pentobarbital (80 mg/kg). Rat hepatocytes were isolated essentially as described by the method of Seglen (Seglen, P. O. Hepatocyte suspensions and cultures as tools in experimental carcinogenesis. J. Toxicol. Environ. Health 1979, 5, 551-560). Hepatocytes were suspended in Dulbecco's Modified Eagles Medium containing 25 mM D-glucose, 14 mM HEPES, 5 mM L-glutamine, 5 mM leucine, 5 mM alanine, 10 mM lactate, 1 mM pyruvate, 0.2% bovine serum albumin, 17.4 mM non-essential amino acids, 20% fetal bovine serum, […] and 20 μg/mL gentamycin) and plated at a density of 1.5×10^5 cells/cm^2 on collagen-coated 96-well plates. Four hours after plating, media was replaced with the same media without serum. Cells were grown overnight to allow formation of monolayer cultures. Lipid synthesis incubation conditions were initially assessed to ensure the linearity of [1-^14C]-acetate incorporation into hepatocyte lipids for up to 4 hours. Hepatocyte lipid synthesis inhibitory activity was assessed during incubations in the presence of 0.25 μCi [1-^14C]-acetate/well (final radiospecific activity in assay is 1 Ci/mol) and 0, 1, 3, 10, 30, 100 or 300 μM of compounds for 4 hours. At the end of the 4-hour incubation period, medium was discarded and cells were washed twice with ice-cold phosphate buffered saline and stored frozen prior to analysis. To determine total lipid synthesis, 170 μl of MicroScint-E® and 50 μl water was added to each well to extract and partition the lipid soluble products to the upper organic phase containing the scintillant. Lipid radioactivity was assessed by scintillation spectroscopy in a Packard TopCount NXT.

female obese Zucker rats = assay: Serum lipid and glycemic control variables in chow-fed obese female Zucker rats, daily oral gavage for two weeks; type: in vivo, rat; details: Rattus norvegicus; for change in vivo at 100 mg/kg: 100 mg/kg daily oral; for change in vivo at 30 mg/kg: 30 mg/kg daily oral
Protocol: Ten- to twelve-week old (400-500 grams) female Zucker fatty rats Cr1: (Zuc)-faBR were obtained from Charles River Laboratories. Animals were acclimated to the laboratory environment for seven days. During the acclimation and study period, animals were housed by group in shoebox polycarbonate cages on Cellu-Dri bedding. The temperature and humidity in the animals' quarters (68-78° F.; 30-75% RH) were monitored and the airflow in the room was sufficient to provide several exchanges per hour with 100% fresh filtered air. An automatic timing device provided an alternating 12-hour cycle of light and dark. Rats received pelleted Purina Laboratory Rodent Chow® (5001) prior to and during the drug intervention period except for a 6-hour phase prior to blood sampling. Fresh water was supplied ad libitum via an automatic watering system. Compounds were dissolved, suspended by mixing in a dosing vehicle consisting of 1.5% carboxymethylcellulose/0.2% Tween 20 or 20% ethanol and 80% polyethylene glycol-200 [v/v]. Dose volume of vehicle or vehicle plus each compound was set at 0.25% of body weight in order to deliver the appropriate dose. Doses were administered daily by oral gavage, approximately between 8-10 AM. Regarding blood sampling, animals were fasted for 6 hours prior to all blood collections. Prior to and after 7 days of dosing, a 1.0- to 2.0-mL sample of blood was collected by administering O2/CO2 anesthesia and bleeding from the orbital venous plexus. Following 14 days of dosing, blood was collected by cardiac puncture after euthanasia with CO2. All blood samples were processed for separation of serum and stored at −80° C. until analysis. Commercially available kits were used to determine serum triglycerides (Roche Diagnostic Corporation, Kit No. 148899 or Boehringer Mannheim, Kit No. 1488872), total cholesterol (Roche Diagnostic Corporation, Kit No. 450061), non-esterified fatty acids (Wako Chemicals, Kit No. 994-75409) and β-hydroxybutyrate (Wako Chemicals, Kit No. 417-73501 or Sigma Kit. No. 310-0) on a Hitachi 912 Automatic Analyzer (Roche Diagnostic Corporation). In some instances, an in-house cholesterol reagent was used to determine total serum cholesterol levels. Serum lipoprotein cholesterol levels were determined by lipoprotein profile analysis. Lipoprotein profiles were analyzed using gel-filtration chromatography on a Superose 6HR (1×30 cm) column equipped with on-line detection of total cholesterol as described by Kieft et al (Kieft, K. A.; Bocan, T. M.; Krause, B. R. Rapid on-line determination of cholesterol distribution among plasma lipoproteins after high-performance gel filtration chromatography. J. Lipid Res. 1991, 32, 859-866.). The total cholesterol content of each lipoprotein was calculated by multiplying the independent values determined for serum total cholesterol by the percent area of each lipoprotein in the profile. The percent body weight gain and the ratio of liver to body weight is also determined. Selected data are shown as absolute values or as a percent change of the pretreatment values in Tables 8 and 9.
Select compounds (214c, 210c, and 210g) were further evalutated in the Zucker rat by performing a full dose response and measuring additional scrum variables including markers for diabetes (Tables 10-12).

[1] = Table 7, ranges: confidence of estimate insufficient to assign a value
[2] = 168 h, 1 wk, Table 9, read-out: HDL-Cholesterol, Percent Change from Pre-Treatment
[3] = 168 h, 1 wk, Table 9, read-out: NonHDL-Cholesterol, Percent Change from Pre-Treatment
[4] = 168 h, 1 wk, Table 9, read-out: TG, Percent Change from Pre-Treatment
[5] = 336 h, 2 wk, Table 9, read-out: HDL-Cholesterol, Percent Change from Pre-Treatment
[6] = 336 h, 2 wk, Table 9, read-out: NonHDL-Cholesterol, Percent Change from Pre-Treatment
[7] = 336 h, 2 wk, Table 9, read-out: TG, Percent Change from Pre-Treatment

SMILES	melting point [°C]	IC50 (primary rat hepatocytes; [1]) [µM]	change in vivo at 30 mg/kg (female obese Zucker rats; [2]) [%]	change in vivo at 30 mg/kg (female obese Zucker rats; [3]) [%]	change in vivo at 30 mg/kg (female obese Zucker rats; [4]) [%]	change in vivo at 30 mg/kg (female obese Zucker rats; [5]) [%]	change in vivo at 30 mg/kg (female obese Zucker rats; [6]) [%]	change in vivo at 30 mg/kg (female obese Zucker rats; [7]) [%]	other results
CC(C)(CCCCCCCC(=O)CCCCCCCC(C)(C)C(=O)O)C(=O)O [Compound 107n, 10-Oxo-2,2,18,18-tetramethyl-nonadecanedioic acid]	74 to 77	–	–	–	–	–	–	–	IC50 (primary rat hepatocytes; Table 6): 10 µM; change in vivo at 100 mg/kg (female obese Zucker rats; 168 h, 1 wk, 100% = 2-fold increase, Table 8, read-out: HDL-Cholesterol, Percent Change from Pre-Treatment): 44%; change in vivo at 100 mg/kg (female obese Zucker rats; 168 h, 1 wk, 100% = 2-fold increase, Table 8, read-out: NonHDL-Cholesterol, Percent Change from Pre-Treatment): -80%; change in vivo at 100 mg/kg (female obese Zucker rats; 168 h, 1 wk, 100% = 2-fold increase, Table 8, read-out: TG, Percent Change from Pre-Treatment): -85%; change in vivo at 100 mg/kg (female obese Zucker rats; 336 h, 2 wk, 100% = 2-fold increase, Table 8, read-out: HDL-Cholesterol, Percent Change from Pre-Treatment): 86%; change in vivo at 100 mg/kg (female obese Zucker rats; 336 h, 2 wk, 100% = 2-fold increase, Table 8, read-out: NonHDL-Cholesterol, Percent Change from Pre-Treatment): -45%; change in vivo at 100 mg/kg (female obese Zucker rats; 336 h, 2 wk, 100% = 2-fold increase, Table 8, read-out: TG, Percent Change from Pre-Treatment): -64%
Cc1ccc(C(C)(CCCCC(=O)CCCCC(C)(C(=O)O)c2ccc(C)cc2)C(=O)O)cc1 (centres unmarked) [Compound 210e, 2,12-Dimethyl-7-oxo-2,12-di-p-tolyltridecanedioic acid]	48 to 50	100 to 300	0	0	-11	10	47	12	–
CC(C)(CCCCC(=O)CCCC(C)(C)C(=O)O)C(=O)O [Compound 225, 2,2,11,11-Tetramethyl-6-oxododecanedioc acid]	72 to 73	8	7	-17	-2	4	92	-22	–
CC(C)(CCCCCC(=O)CCCCC(C)(C)C(=O)O)C(=O)O [Compound 226, 2,2,13,13-Tetramethyl-7-oxotetradecanedioc acid]	61 to 62	3	–	–	–	–	–	–	change in vivo at 100 mg/kg (female obese Zucker rats; [2]): 240%; change in vivo at 100 mg/kg (female obese Zucker rats; [3]): -30%; change in vivo at 100 mg/kg (female obese Zucker rats; [4]): -65%; change in vivo at 100 mg/kg (female obese Zucker rats; [5]): 72%; change in vivo at 100 mg/kg (female obese Zucker rats; [6]): -51%; change in vivo at 100 mg/kg (female obese Zucker rats; [7]): -62%
